{
  "source": "ChEMBL document CHEMBL1201862",
  "about": "“PubChem BioAssay data set” (2004)",
  "key": {"[1]": {"system": "HEK293", "test": "inhibition of NOD1-driven NF-kB reporter – cell-based, luminescence, uHTS, primary screen (AID 1578)", "format": "functional", "conditions": "Homo sapiens"}, "[2]": {"system": "HEK293", "test": "cells", "format": "functional, cell-based", "conditions": "Homo sapiens"}, "[3]": {"system": "Streptococcus sp. 'group A'", "test": "Streptococcus pyogenes SK(-)GAS viability under kanamycin – luminescence, BacTiterGlo, confirmation, counter-screen for streptokinase expression inhibitor project, dose response (AID 1900)", "format": "functional, organism-based"}, "[4]": {"system": "Streptococcus", "test": "GAS UMAA2166 growth inhibition – luminescence, BacTiterGlo, counter-screen for streptokinase expression inhibitor project, dose response (AID 1915);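 further: potency for reduction of bacterial viability or growth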", "format": "functional, organism-based"}, "[5]": {"system": "HEK293", "test": "cells", "format": "functional, cell-based", "conditions": "Homo sapiens", "remark": "listed apart in the source"}, "[6]": {"test": "Trypanosoma cruzi growth suppression in host cells – NIH3T3 host cells, beta-gal luminescence, confirmation (AID 2044);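 further: intracellular parasites grown in NIH/3T3 mouse fibroblasts as host cells; luminescent beta-galactosidase reporter signal from transgenic T. cruzi replicating inside host cells; inhibitors lower the luminescence signal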", "format": "functional, cell-based"}, "[7]": {"test": "viability loss in HEK293 cells – cell-based, plate reader, cherry-picked samples, cytotoxicity control, dose response (AID 743446)", "format": "functional"}, "[8]": {"system": "Vero", "test": "cells", "format": "functional", "conditions": "Chlorocebus sabaeus"}, "[9]": {"test": "blockade of melanocortin 4 receptor signaling – cell-based, plate reader, cherry pick, counter-screen for LGR2 antagonist project, dose response (AID 743444);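 further: transfected HEK 293 cells stimulated with alpha-MSH peptide; potency of inhibitors of the alpha-MSH evoked signal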", "format": "functional"}, "[10]": {"target": "Nucleotide-binding oligomerization domain-containing protein 2 (Homo sapiens, UniProt Q9HC29)", "sequence (Q9HC29 whole entry, the tested form may be a part)": "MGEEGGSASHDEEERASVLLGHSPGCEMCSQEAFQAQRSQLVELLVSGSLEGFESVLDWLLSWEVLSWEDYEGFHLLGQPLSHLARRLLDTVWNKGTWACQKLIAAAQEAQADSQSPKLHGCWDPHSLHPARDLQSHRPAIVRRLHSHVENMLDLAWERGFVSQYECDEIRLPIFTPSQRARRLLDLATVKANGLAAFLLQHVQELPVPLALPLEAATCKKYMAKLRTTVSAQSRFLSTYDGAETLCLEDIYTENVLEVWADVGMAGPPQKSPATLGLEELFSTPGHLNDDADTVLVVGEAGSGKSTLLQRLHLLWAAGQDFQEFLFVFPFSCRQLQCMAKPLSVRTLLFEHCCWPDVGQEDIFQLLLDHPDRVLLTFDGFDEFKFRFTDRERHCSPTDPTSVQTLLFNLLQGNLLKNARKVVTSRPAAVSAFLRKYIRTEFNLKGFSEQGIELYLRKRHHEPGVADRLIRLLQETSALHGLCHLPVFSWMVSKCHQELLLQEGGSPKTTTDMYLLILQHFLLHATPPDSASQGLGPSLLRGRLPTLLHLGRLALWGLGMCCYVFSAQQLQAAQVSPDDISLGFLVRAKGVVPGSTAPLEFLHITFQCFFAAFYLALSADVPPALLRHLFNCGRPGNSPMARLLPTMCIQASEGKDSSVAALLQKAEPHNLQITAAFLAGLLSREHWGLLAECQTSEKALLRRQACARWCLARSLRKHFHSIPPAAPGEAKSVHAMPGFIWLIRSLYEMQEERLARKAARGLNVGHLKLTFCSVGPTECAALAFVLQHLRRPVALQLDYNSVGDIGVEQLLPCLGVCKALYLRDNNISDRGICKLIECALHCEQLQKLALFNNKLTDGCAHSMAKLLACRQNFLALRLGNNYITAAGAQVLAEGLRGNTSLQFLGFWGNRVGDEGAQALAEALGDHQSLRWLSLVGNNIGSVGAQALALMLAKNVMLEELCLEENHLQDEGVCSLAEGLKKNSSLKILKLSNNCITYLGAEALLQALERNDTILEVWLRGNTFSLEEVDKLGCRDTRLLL", "test": "inhibition of NOD2-driven NF-kB reporter – cell-based, luminescence, uHTS, HEK293 (AID 1566)", "format": "functional"}, "[11]": {"test": "A549 cell cytotoxicity, dose response, cytotoxicity control, plate reader, cherry-pick, antagonist series (AID 743412)", "format": "functional, cell-based"}, "[12]": {"target": "T1, Streptokinase A (Streptococcus pyogenes serotype M1, UniProt P10520)", "T1 sequence (P10520 whole entry)": "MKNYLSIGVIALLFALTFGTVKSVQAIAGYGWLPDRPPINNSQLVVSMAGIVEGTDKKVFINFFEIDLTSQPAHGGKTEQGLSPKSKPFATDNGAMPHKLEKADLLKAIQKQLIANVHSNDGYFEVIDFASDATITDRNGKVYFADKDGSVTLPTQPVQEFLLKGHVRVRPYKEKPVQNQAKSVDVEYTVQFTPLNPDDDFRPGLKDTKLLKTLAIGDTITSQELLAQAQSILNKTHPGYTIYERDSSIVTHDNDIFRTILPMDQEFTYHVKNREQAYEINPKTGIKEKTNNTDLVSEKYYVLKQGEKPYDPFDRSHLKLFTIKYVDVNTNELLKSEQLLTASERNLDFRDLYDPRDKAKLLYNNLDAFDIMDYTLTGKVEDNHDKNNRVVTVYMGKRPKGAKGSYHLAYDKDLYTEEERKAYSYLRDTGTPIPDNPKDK", "test": "viability-normalized secreted streptokinase activity reduction – plasminogen activation absorbance, OD405, dose response (AID 1914);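 further: secreted streptokinase activity via plasminogen activation per viability signal from cell pellet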", "format": "functional, Streptococcus pyogenes M1 GAS"}, "[13]": {"system": "HEK293", "test": "cells", "format": "functional, cell-based", "conditions": "Homo sapiens", "remark": "listed apart in the source"}, "[14]": {"test": "blockers of bursicon-stimulated LGR2 cAMP reporter – cell-based, HEK293, CRE-luciferase reporter, cherry pick, set 2, dose response (AID 743343);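 further: transfected cells were stimulated with diluted bursicon conditioned medium after compound addition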", "format": "functional"}, "[15]": {"system": "HEK293", "test": "NOD2 signaling inhibitors in MDP-stimulated cells, cell-based, uHTS, luminescence (AID 2001)", "format": "functional", "conditions": "Homo sapiens"}, "[16]": {"test": "NIH3T3 cell viability loss – ATP luminescence, mouse fibroblasts, counter-screen, dose response (AID 2010);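 further: cells exposed to compound for about 90 hours before reading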", "format": "functional, cell-based"}, "[17]": {"test": "toxicity toward HepG2 liver cells – cell-based, plate reader, cherry-pick, antagonist series, cytotoxicity control, dose response (AID 743416)", "format": "functional"}},
  "note": "The source made the active and inactive calls.",
  "data": [
    {"compound": "CC(=O)c1c(C)[nH]c(C(=O)Nc2nc(-c3ccc(-c4ccccc4)cc3)cs2)c1C", "values": [
      {"measurement": "EC50", "setting": "[1]", "result": "3.76 µM (active)"},
      {"measurement": "IC50", "setting": "[2]", "result": "18.2 µM (active)"},
      {"measurement": "EC50", "setting": "[3]", "result": "4.48 µM (active)"},
      {"measurement": "EC50", "setting": "[4]", "result": "16.7 µM (active)"},
      {"measurement": "IC50", "setting": "[5]", "result": "11.2 µM (active)"},
      {"measurement": "EC50", "setting": "[6]", "result": "0.876 µM (active)"},
      {"measurement": "AC50", "setting": "[7]", "result": "17.9 µM (active)"},
      {"measurement": "CC50", "setting": "[8]", "result": "21.1 µM (active)"},
      {"measurement": "AC50", "setting": "[9]", "result": "20 µM (active)"},
      {"measurement": "EC50", "setting": "[10]", "result": "14.1 µM (active)"},
      {"measurement": "AC50", "setting": "[11]", "result": "17.6 µM (active)"},
      {"measurement": "EC50", "setting": "[12]", "result": "> 150 µM (not active)"},
      {"measurement": "IC50", "setting": "[13]", "result": "4.41 µM (active)"},
      {"measurement": "AC50", "setting": "[14]", "result": "40.2 µM (active)"},
      {"measurement": "IC50", "setting": "[15]", "result": "4.86 µM (inactive)"},
      {"measurement": "EC50", "setting": "[16]", "result": "> 60 µM (not active)"},
      {"measurement": "AC50", "setting": "[17]", "result": "23.5 µM (active)"}
    ]}
  ]
}
